Test results: patent US20240101521A1, “DIAMINOTRIAZINE COMPOUNDS” (BASF SE, priority 2021, published 2024)

Legend:
Experiment in all cases: greenhouse pre-emergence herbicidal test
Assay type in all cases: in vivo
Abutilon theophrasti = details: scale 0 to 100
Outline: (§1)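 Spray application right after sowing of active ingredients suspended or emulsified in water, onto loamy sand with about 3.0% humus; pots covered with plastic hoods until rooted, kept at 10-25° C. or 20-35° C. depending on species. Damage scored 0-100 (100 = no emergence or complete aerial destruction) after 2 to 4 weeks.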

Echinochloa crus-galli = details: scale 0 to 100
Outline: as §1

Digitaria sanguinalis = details: scale 0 to 100
Outline: as §1

Lolium multiflorum = details: pre-emergence, 62,5 g/ha, scale 0 to 100
Outline: as §1

Amaranthus retroflexus = details: scale 0 to 100
Outline: as §1

Alopecurus myosuroides = details: pre-emergence, 62,5 g/ha, scale 0 to 100
Outline: as §1

Setaria faberi = details: scale 0 to 100
Outline: as §1

Apera spica-venti = details: 31 g/ha, scale 0 to 100
Outline: as §1

Row | SMILES | herbicidal activity (Abutilon theophrasti; pre-emergence, 62,5 g/ha) | herbicidal activity (Echinochloa crus-galli; pre-emergence, 62,5 g/ha) | herbicidal activity (Lolium multiflorum) | herbicidal activity (Amaranthus retroflexus; pre-emergence, 62,5 g/ha) | also measured
1 | COc1c(Cl)cc(C)c(F)c1Nc1nc(N)nc(C(C)(C)F)n1 [Example 3] | 100% | 100% |  |  | herbicidal activity (Digitaria sanguinalis; pre-emergence, 62,5 g/ha): 100%
2 | COc1c(Cl)ccc(F)c1Nc1nc(N)nc(C(C)(C)F)n1 [Example 2] | 100% | 100% |  |  | herbicidal activity (Digitaria sanguinalis; pre-emergence, 62,5 g/ha): 100%
3 | COc1c(Cl)c(F)c(F)c(F)c1Nc1nc(N)nc(C(C)(C)F)n1 [Example 148] |  |  | 100% | 100% | herbicidal activity (Alopecurus myosuroides): 100%
4 | COc1c(Br)ccc(F)c1Nc1nc(N)nc(C2(F)CCCCC2)n1 [Example 5] |  |  |  |  | herbicidal activity (Abutilon theophrasti; pre-emergence, 250 g/ha): 90%; herbicidal activity (Echinochloa crus-galli; pre-emergence, 250 g/ha): 85%; herbicidal activity (Digitaria sanguinalis; pre-emergence, 250 g/ha): 100%
5 | CC(C)(F)c1nc(N)nc(Nc2c(F)c(F)cc(Br)c2OC/C=C/Cl)n1 [Example 124] |  |  | 80% | 100% | herbicidal activity (Setaria faberi; pre-emergence, 62,5 g/ha): 100%
6 | CC#CC(C)Oc1c(F)cc(F)c(F)c1Nc1nc(N)nc(C2(F)CCCC2)n1 (stereo not drawn) [Example 104] | 100% | 100% | 100% |  | 
7 | COc1c(Cl)cc(Cl)c(F)c1Nc1nc(N)nc(C2(F)CCCC2)n1 [Example 60] |  |  |  |  | herbicidal activity (Setaria faberi; pre-emergence, 31 g/ha): 98%; herbicidal activity (Amaranthus retroflexus; pre-emergence, 31 g/ha): 100%; herbicidal activity (Apera spica-venti): 95%
8 | COc1c(Cl)c(F)c(F)c(F)c1Nc1nc(N)nc(C(C)(C)OC)n1 [Example 174] |  |  | 100% | 100% | herbicidal activity (Alopecurus myosuroides): 98%
9 | COc1c(Br)ccc(F)c1Nc1nc(N)nc(C(C)(C)F)n1 [Example 4, N4-(3-bromo-6-fluoro-2-methoxy-phenyl)-6-(1-fluoro-1-methyl-ethyl)-1,3,5-triazine-2,4-diamine] | 100% | 100% |  |  | herbicidal activity (Digitaria sanguinalis; pre-emergence, 62,5 g/ha): 100%
10 | C#CCOc1c(Cl)cc(F)c(F)c1Nc1nc(N)nc(C2(F)CCCC2)n1 [Example 129] |  |  | 90% | 95% | herbicidal activity (Setaria faberi; pre-emergence, 62,5 g/ha): 100%
11 | CC#CC(Oc1c(F)cc(F)c(F)c1Nc1nc(N)nc(C(C)(C)F)n1)C1CC1 (stereo not drawn) [Example 119] |  |  | 70% | 85% | herbicidal activity (Setaria faberi; pre-emergence, 62,5 g/ha): 85%
